78 molecules from ChEMBL document CHEMBL1125844, “Novel non-nucleoside inhibitors of HIV-1 reverse transcriptase. 1. Tricyclic pyridobenzo- and dipyridodiazepinones” (J Med Chem, 1991) can be followed below.

For test [1], the target named is Human immunodeficiency virus type 1 reverse transcriptase (Human immunodeficiency virus 1, UniProt Q72547). As to the kind of experiment: In vitro inhibitory activity against human immunodeficiency virus type 1 (HIV-1) reverse transcriptase (RT).
Test [2] concerns the target Human immunodeficiency virus type 1 reverse transcriptase (Human immunodeficiency virus 1) (UniProt Q72547). As to the kind of experiment: In vitro inhibitory activity against human immunodeficiency virus type 1 (HIV-1) reverse transcriptase (RT) at a concentration of 10 ug/mL.

As for `CCN1c2cc(C(F)(F)F)ccc2N(C)C(=O)c2cccnc21`, the 50% inhibitory concentration (IC50) in test [1] stood at 0.23 µM. Besides, in test [2], the inhibition is 97%.
Consider `Cc1ccc2c(n1)Nc1ccccc1C(=O)N2`, for which the IC50 in test [1] is greater than 1 µM. The same molecule returned an inhibition in test [2] of 46%.
In the same order, the values of `CCN1c2ncccc2C(=O)N(C)c2cc(N)cnc21` are greater than 1 µM and 92%.
Take `CCCCN1c2ccccc2N(C)C(=O)c2cccnc21`: the 50% inhibitory concentration (IC50) in test [1] was 1 µM. Also, the inhibition in test [2] turned out to be 81%.
Consider `O=C1Nc2c(CO)ccnc2N(C2CC2)c2ncccc21`, for which the IC50 in test [1] worked out at 3 µM. In addition, the inhibition in test [2] was 94%.
For `CC[C@@H](C)N1c2ncccc2NC(=O)c2cccnc21`, the IC50 in test [1] is greater than 1 µM. This molecule had an inhibition in test [2] of 85%.
`CCN1c2ccccc2C(=O)N(C)c2cccnc21` gave a concentration for half-maximal inhibition (IC50) in test [1] of 0.5 µM. The molecule further came in with an inhibition in test [2] of 99%.
In turn, `CN1C(=O)c2cccnc2N(CCF)c2ccccc21` had a half-maximal inhibitory concentration (IC50) in test [1] of 1 µM. For the same molecule, the inhibition in test [2] was 97%.
Taken in the same sequence, the figures for `CCN1c2ccc(C(=O)O)cc2N(C)C(=O)c2cccnc21` were greater than 1 µM and 18%.
As for `CCN1c2ccccc2N(C)C(=O)c2cccnc21`, the half-maximal inhibitory concentration (IC50) in test [1] came out at 0.35 µM. The molecule also displayed an inhibition in test [2] of 100%.
Taken in the same sequence, the figures for `CCCN1c2ccccc2N(C)C(=O)c2cccnc21` were 0.23 µM and 99%.
In the same order, the values of `CC(C)N1c2ncccc2NC(=O)c2cccnc21` are 0.59 µM and 99%.
In the same order, the values of `CCN(CC)C(=O)c1ccc2c(c1)N(C)C(=O)c1cccnc1N2CC` are greater than 1 µM and 11%.
`CCN1c2cc(C(F)(F)F)cc(Cl)c2N(C)C(=O)c2cccnc21` showed an IC50 in test [1] of 0.29 µM. The molecule further gave an inhibition in test [2] of 96%.
In the same order, the values of `CCN1c2ncccc2C(=O)N(C)c2cc(C)cnc21` are 0.76 µM and 100%.
Regarding `O=C1Nc2cccnc2N(C2CCCC2)c2ncccc21`, the 50% inhibitory concentration (IC50) in test [1] is greater than 1 µM. The same molecule had an inhibition in test [2] of 94%.
`Cc1cccc2c1NC(=O)c1cccnc1N2`: in test [1], the IC50 is greater than 1 µM. Further, the inhibition in test [2] was 77%.
In the same order, the values of `CCN1c2ncccc2C(=O)N(C)c2cc(C)c(C)nc21` are 0.24 µM and 100%.
In the same order, the values of `O=C1Nc2cccnc2N(C2CC2)c2ncccc21` are 0.45 µM and 99%.
In the case of `CCN1C(=O)c2ccccc2N(CC)c2ncccc21`, in test [1], the 50% inhibitory concentration (IC50) was determined as 0.69 µM. In addition, the inhibition in test [2] amounted to 96%.
Taken in the same sequence, the figures for `CCN1c2nc(C)ccc2C(=O)N(C)c2cccnc21` were greater than 1 µM and 65%.
In the same order, the values of `Cc1ccnc2c1N(C)C(=O)c1cccnc1N2C1CC1` are greater than 1 µM and 96%.
Molecule `CCN1c2ncccc2C(=O)Nc2c(OC)ccnc21` showed a half-maximal inhibitory concentration (IC50) in test [1] greater than 1 µM. The molecule further showed an inhibition in test [2] of 96%.
Molecule `CCN1c2ccc(OC)cc2N(C)C(=O)c2cccnc21` gave a concentration for half-maximal inhibition (IC50) in test [1] of 2.1 µM. Besides, the inhibition in test [2] is 95%.
In turn, `CCN1c2ccc(CO)cc2N(C)C(=O)c2cccnc21` displayed an IC50 in test [1] greater than 1 µM. The same molecule gave an inhibition in test [2] of 78%.
In the same order, the values of `CN(C)C(=O)CN1C(=O)c2cccnc2Nc2ccccc21` are greater than 1 µM and 24%.
In the same order, the values of `CCN1c2ccccc2N(C)C(=O)c2cc(C(F)(F)C(F)(F)F)cnc21` are greater than 1 µM and 5%.
In the same order, the values of `CCN1c2ccccc2C(=O)N(C)c2ccccc21` are greater than 1 µM and 80%.
`CN1C(=O)c2cccnc2N(C(C)(C)C)c2ncccc21` returned a half-inhibitory concentration (IC50) in test [1] of 11 µM. In test [2], this molecule registered an inhibition of 87%.
The molecule `CCN1c2ccc(C)cc2N(C)C(=O)c2cccnc21` registered an IC50 in test [1] of 0.19 µM. The same molecule showed an inhibition in test [2] of 100%.
Taken in the same sequence, the figures for `CCN1c2ncc(Cl)cc2C(=O)N(C)c2cccnc21` were 3.5 µM and 87%.
In the same order, the values of `CN1C(=O)c2cccnc2N(CCF)c2ncccc21` are 2.9 µM and 96%.
Taken in the same sequence, the figures for `CCN1c2ncccc2C(=O)N(C)c2cc([N+](=O)[O-])cnc21` were greater than 1 µM and 64%.
Turning to `C#CN1c2ccccc2N(C)C(=O)c2cccnc21`, in test [1], half-maximal inhibition (IC50) required 0.65 µM. The same molecule had an inhibition in test [2] of 97%.
`CCN1c2cc(C(F)(F)F)cc(Br)c2N(C)C(=O)c2cccnc21` had an IC50 in test [1] greater than 1 µM. In test [2], this molecule displayed an inhibition of 71%.
`CCN1c2cc(C(=O)c3ccccc3)ccc2N(C)C(=O)c2cccnc21` showed an IC50 in test [1] greater than 1 µM. Besides, the inhibition in test [2] is 73%.
In the same order, the values of `CN1C(=O)c2ccccc2N(C)c2ccccc21` are greater than 1 µM and 52%.
Take `C#CCN1c2ncccc2C(=O)N(C)c2cccnc21`: in test [1], the half-inhibitory concentration (IC50) is greater than 1 µM. The molecule further returned an inhibition in test [2] of 94%.
In test [1], `CCOC(=O)CN1c2ccccc2N(C)C(=O)c2cccnc21` yielded a half-maximal inhibitory concentration (IC50) of 16 µM. The inhibition in test [2] was determined as 56%.
As for `CC(=O)N1c2ccccc2N(C)C(=O)c2cccnc21`, the IC50 in test [1] is greater than 1 µM. In test [2], the inhibition was determined as 72%.
`CCN1c2ccccc2N(CF)C(=O)c2cccnc21` had a 50% inhibitory concentration (IC50) in test [1] greater than 1 µM. The inhibition in test [2] was found to be 85%.
The molecule `COCCN1C(=O)c2cccnc2Nc2ccccc21` came in with an IC50 in test [1] greater than 1 µM. In test [2], this molecule yielded an inhibition of 36%.
Turning to `CC(C)N1c2ccccc2N(C)C(=O)c2cccnc21`, the IC50 in test [1] stood at 0.2 µM. This molecule yielded an inhibition in test [2] of 98%.
Taken in the same sequence, the figures for `CCN1c2cc(Cl)c(Cl)cc2N(C)C(=O)c2cccnc21` were 0.062 µM and 100%.
Turning to `CN1C(=O)c2cccnc2N(C)c2ccccc21`, the concentration for half-maximal inhibition (IC50) in test [1] was greater than 1 µM. Besides, the inhibition in test [2] turned out to be 85%.
Consider `CCN1c2ccc(O)cc2N(C)C(=O)c2cccnc21`, for which, in test [1], the IC50 is greater than 1 µM. In test [2], this molecule registered an inhibition of 47%.
Taken in the same sequence, the figures for `CCN1c2ccc([N+](=O)[O-])cc2N(C)C(=O)c2cc(Br)cnc21` were greater than 1 µM and 64%.
The molecule `CCN1c2cc([N+](=O)[O-])ccc2N(C)C(=O)c2cccnc21` displayed a 50% inhibitory concentration (IC50) in test [1] of 0.4 µM. In test [2], this molecule had an inhibition of 99%.
Taken in the same sequence, the figures for `CCN1C(=O)c2cccnc2N(CC)c2ccccc21` were 0.38 µM and 99%.
With `CCN1c2ccc(Cl)cc2N(C)C(=O)c2cccnc21`, the IC50 in test [1] was 0.17 µM. The inhibition in test [2] worked out at 99%.
In turn, `C=CCN1c2ncccc2C(=O)N(C)c2cccnc21` registered a concentration for half-maximal inhibition (IC50) in test [1] of 0.85 µM. Moreover, in test [2], the inhibition came out at 99%.
`CCN1c2cccc(C)c2N(Cc2ccccc2)C(=O)c2cccnc21` showed a half-maximal inhibitory concentration (IC50) in test [1] greater than 1 µM. The molecule also gave an inhibition in test [2] of 40%.
Taken in the same sequence, the figures for `CCN1c2cccc(C)c2N(C)C(=O)c2cccnc21` were 0.24 µM and 100%.
Consider `CCN1C(=O)c2cccc(C)c2N(CC)c2ncccc21`, for which, in test [1], 0.65 µM corresponded to half-maximal inhibition (IC50). Besides, the inhibition in test [2] was 99%.
In the same order, the values of `CC(=O)N1c2cc(C)c(C)cc2N(C)C(=O)c2cccnc21` are 0.42 µM and 96%.
In the same order, the values of `O=C1Nc2cccnc2Nc2ccccc21` are greater than 1 µM and 23%.
`CCN1C(=O)c2cccnc2N(CC)c2cccc(C)c21` displayed an IC50 in test [1] of 8 µM. The molecule also gave an inhibition in test [2] of 90%.
In the same order, the values of `C=CCN1C(=O)c2cccnc2Nc2ccc(Cl)cc21` are greater than 1 µM and 79%.
Taken in the same sequence, the figures for `CCN1c2ncccc2C(=O)Nc2c(O)ccnc21` were greater than 1 µM and 94%.
In test [1], `CCN1c2ncccc2C(=O)N(C)c2cc(Cl)cnc21` came in with a half-inhibitory concentration (IC50) greater than 1 µM. For the same molecule, in test [2], the inhibition turned out to be 99%.
In the same order, the values of `O=C1Nc2cccnc2N(c2ccccc2)c2ncccc21` are greater than 1 µM and 71%.
For `CN1C(=O)c2cccnc2N(S(C)(=O)=O)c2ncccc21`, in test [1], the IC50 is greater than 1 µM. In addition, in test [2], the inhibition amounted to 77%.
As for `CSCN1c2ncccc2C(=O)N(C)c2cccnc21`, the IC50 in test [1] was determined as 0.85 µM. In addition, the inhibition in test [2] was determined as 99%.
In the same order, the values of `CN1C(=O)c2cccnc2N(C2CCCCC2)c2ncccc21` are greater than 1 µM and 73%.
In the same order, the values of `CCN1c2cccc(C)c2NC(=O)c2cccnc21` are 0.038 µM and 100%.
Taken in the same sequence, the figures for `CN1C(=O)c2cccnc2Nc2ccccc21` were greater than 1 µM and 43%.
On to `CCN1c2ccc(C(N)=O)cc2N(C)C(=O)c2cccnc21`, for which half-maximal inhibition in test [1] (IC50) was put at 27 µM. The same molecule registered an inhibition in test [2] of 66%.
`CCN1C(=O)c2cccnc2N(C)c2ccccc21` gave an IC50 in test [1] greater than 1 µM. Besides, in test [2], the inhibition came out at 84%.
`C=CCN1C(=O)c2cccnc2Nc2ccccc21` had a concentration for half-maximal inhibition (IC50) in test [1] of 1.4 µM. In test [2], this molecule gave an inhibition of 96%.
Turning to `C=CCN1C(=O)c2cccnc2N(C(=O)CC)c2ccccc21`, in test [1], the IC50 is greater than 1 µM. The same molecule displayed an inhibition in test [2] of 72%.
In the same order, the values of `CCN1c2ccc(C)c(C)c2N(C)C(=O)c2cccnc21` are 0.036 µM and 99%.
`Cc1ccnc2c1NC(=O)c1c(O)ccnc1N2C1CC1` gave a half-maximal inhibitory concentration (IC50) in test [1] greater than 1 µM. In test [2], this molecule came in with an inhibition of 96%.
Molecule `CCN1c2ncccc2C(=O)Nc2c(Cl)ccnc21` had an IC50 in test [1] of 0.095 µM. Further, the inhibition in test [2] was determined as 100%.
Taken in the same sequence, the figures for `C=CCN1C(=O)c2cccnc2N(C(C)=O)c2ccccc21` were greater than 1 µM and 83%.
Taken in the same sequence, the figures for `CCN1c2ccc(C(=O)OC)cc2N(C)C(=O)c2cccnc21` were 1.1 µM and 94%.
In test [1], `CCN1c2cc(NC(C)=O)ccc2N(C)C(=O)c2cccnc21` returned an IC50 greater than 1 µM. The same molecule showed an inhibition in test [2] of 49%.
In the same order, the values of `CCc1ccnc2c1NC(=O)c1cccnc1N2CC` are 0.11 µM and 100%.
Take `Cc1ccnc2c1NC(=O)c1cccnc1N2C1CC1`: the inhibition in test [2] is 100%.

What is called IC50 is the concentration that gives 50% inhibition. Low readings indicate greater potency in that assay, high ones weaker potency in that assay. As a reminder, the inhibition is the change of the read-out against control, counted positive when it falls.
